Molecular target: human A2A receptor (A2AR) (Homo sapiens, UniProt P29274)
Assay: Luciferase reporter assay (HEK293-A2AR-luc2p/CRE/Hygro cells, 3 nM CGS21680)
Assay type: cell-based
Conditions: 3 nM CGS21680, 5 h incubation
Summary of the method: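 Antagonist (0.1–10000 nM) and 3 nM CGS21680 were co-added for 5 h to stable HEK293-A2AR-luc2p/CRE cells, 18 h after seeding in 1% FBS medium containing adenosine deaminase. Luminescence was normalized to agonist alone (100%), and IC50 came from the dose–inhibition curve.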

human A2A receptor (A2AR), sequence (P29274 whole entry): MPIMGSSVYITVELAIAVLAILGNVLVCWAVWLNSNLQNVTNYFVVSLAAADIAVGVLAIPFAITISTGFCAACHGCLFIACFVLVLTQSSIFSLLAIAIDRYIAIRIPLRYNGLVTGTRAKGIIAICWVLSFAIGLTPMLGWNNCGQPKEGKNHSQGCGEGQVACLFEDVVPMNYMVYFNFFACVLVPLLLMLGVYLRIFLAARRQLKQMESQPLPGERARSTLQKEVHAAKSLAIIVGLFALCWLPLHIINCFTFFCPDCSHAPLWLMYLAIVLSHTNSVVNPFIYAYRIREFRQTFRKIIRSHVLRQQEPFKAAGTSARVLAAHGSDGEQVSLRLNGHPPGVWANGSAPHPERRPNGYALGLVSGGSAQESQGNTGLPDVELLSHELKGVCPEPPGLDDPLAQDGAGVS

IC50 [nM]	SMILES
28.4	COCCOc1ccc(N2CCN(C(=O)C(C)n3cc4c(nc(N)n5nc(-c6ccco6)nc45)n3)CC2)cc1 (stereo not shown) [Compound C1, 2-(5-amino-2-(furan-2-yl)-8H-pyrazolo[4,3-e][1,2,4]triazolo[1,5-c]pyrimidin-8-yl)-1-(4-(4-(2-methoxyethoxy)phenyl)piperazin-1-yl)propan-1-one]
648	COCCOc1ccc(N2CCN(C(=O)C(C(C)C)n3cc4c(nc(N)n5nc(-c6ccco6)nc45)n3)CC2)cc1 (stereo not shown) [Compound C2, 2-(5-amino-2-(furan-2-yl)-8H-pyrazolo[4,3-e][1,2,4]triazolo[1,5-c]pyrimidin-8-yl)-1-(4-(4-(2-methoxyethoxy)phenyl)piperazin-1-yl)-3-methylbutan-1-one]
140	CCC(C(=O)N1CCN(c2ccc(OCCOC)cc2)CC1)n1cc2c(nc(N)n3nc(-c4ccco4)nc23)n1 (stereo not shown) [Compound C4, 2-(5-amino-2-(furan-2-yl)-8H-pyrazolo[4,3-e][1,2,4]triazolo[1,5-c]pyrimidin-8-yl)-1-(4-(4-(2-methoxyethoxy)phenyl)piperazin-1-yl)butan-1-one]
132	CCCC(C(=O)N1CCN(c2ccc(OCCOC)cc2)CC1)n1cc2c(nc(N)n3nc(-c4ccco4)nc23)n1 (stereo not shown) [Compound C5, 2-(5-amino-2-(furan-2-yl)-8H-pyrazolo[4,3-e][1,2,4]triazolo[1,5-c]pyrimidin-8-yl)-1-(4-(4-(2-methoxyethoxy)phenyl)piperazin-1-yl)pentan-1-one]
243	CCC(C(=O)N1CCN(c2ccc(OCCOCCOC)cc2)CC1)n1cc2c(nc(N)n3nc(-c4ccco4)nc23)n1 (stereo not shown) [Compound C8, 2-(5-amino-2-(furan-2-yl)-8H-pyrazolo[4,3-e][1,2,4]triazolo[1,5-c]pyrimidin-8-yl)-1-(4-(4-(2-(2-methoxyethoxy)ethoxy)phenyl)piperazin-1-yl)butan-1-one]
39.8	COCCOCCOc1ccc(N2CCN(C(=O)C(C)n3cc4c(nc(N)n5nc(-c6ccco6)nc45)n3)CC2)cc1 (stereo not shown) [Compound C9, 2-(5-amino-2-(furan-2-yl)-8H-pyrazolo[4,3-e][1,2,4]triazolo[1,5-c]pyrimidin-8-yl)-1-(4-(4-(2-(2-methoxyethoxy)ethoxy)phenyl)piperazin-1-yl)propan-1-one]
126	CCCCC(C(=O)N1CCN(c2ccc(OCCOC)cc2)CC1)n1cc2c(nc(N)n3nc(-c4ccco4)nc23)n1 (stereo not shown) [Compound C10, 2-(5-amino-2-(furan-2-yl)-8H-pyrazolo[4,3-e][1,2,4]triazolo[1,5-c]pyrimidin-8-yl)-1-(4-(4-(2-methoxyethoxy)phenyl)piperazin-1-yl)hexan-1-one]
12.7	CC(C(=O)N1CCN(c2ccc(OCCN)cc2)CC1)n1cc2c(nc(N)n3nc(-c4ccco4)nc23)n1 (stereo not shown) [Compound C13, 2-(5-amino-2-(furan-2-yl)-8H-pyrazolo[4,3-e][1,2,4]triazolo[1,5-c]pyrimidin-8-yl)-1-(4-(4-(2-aminoethoxy)phenyl)piperazin-1-yl)propan-1-one]
9.5	COCCOc1ccc(N2CCN(C(=O)C(c3ccccc3)n3cc4c(nc(N)n5nc(-c6ccco6)nc45)n3)CC2)cc1 (stereo not shown) [Compound C14, 2-(5-amino-2-(furan-2-yl)-8H-pyrazolo[4,3-e][1,2,4]triazolo[1,5-c]pyrimidin-8-yl)-1-(4-(4-(2-methoxyethoxy)phenyl)piperazin-1-yl)-2-phenylethan-1-one]

The remaining lines, values behind:

SMILES	IC50 [nM]
CC(C(=O)N1CCNCC1)(c1ccccc1)n1ncc2c1nc(N)n1nc(-c3ccco3)nc21 (stereo not shown) [Compound B21, 2-(5-amino-2-(furan-2-yl)-7H-pyrazolo[4,3-e][1,2,4]triazolo[1,5-c]pyrimidin-7-yl)-2-phenyl-1-(piperazin-1-yl)propan-1-one]	96.7
CC(C(=O)N1CC2(COC2)C1)(c1ccccc1)n1ncc2c1nc(N)n1nc(-c3ccco3)nc21 (stereo not shown) [Compound B22, 2-(5-amino-2-(furan-2-yl)-7H-pyrazolo[4,3-e][1,2,4]triazolo[1,5-c]pyrimidin-7-yl)-2-phenyl-1-(2-oxa-6-azaspiro[3.3]heptan-6-yl)propan-1-one]	16
CC(C(=O)N1CCCC1)(c1ccccc1)n1ncc2c1nc(N)n1nc(-c3ccco3)nc21 (stereo not shown) [Compound B23, 2-(5-amino-2-(furan-2-yl)-7H-pyrazolo[4,3-e][1,2,4]triazolo[1,5-c]pyrimidin-7-yl)-2-phenyl-1-(pyrrolidin-1-yl)propan-1-one]	24.9
CC(C(=O)N1CCC1)(c1ccccc1)n1ncc2c1nc(N)n1nc(-c3ccco3)nc21 (stereo not shown) [Compound B24, 2-(5-amino-2-(furan-2-yl)-7H-pyrazolo[4,3-e][1,2,4]triazolo[1,5-c]pyrimidin-7-yl)-1-(azetidin-1-yl)-2-phenylpropan-1-one]	12
CC1(O)CCN(C(=O)C(C)(c2ccccc2)n2ncc3c2nc(N)n2nc(-c4ccco4)nc32)CC1 (stereo not shown) [Compound B25, 2-(5-amino-2-(furan-2-yl)-7H-pyrazolo[4,3-e][1,2,4]triazolo[1,5-c]pyrimidin-7-yl)-1-(4-hydroxy-4-methylpiperidin-1-yl)-2-phenylpropan-1-one]	23.7
CC(C(=O)N1CC2(CCOCC2)C1)(c1ccccc1)n1ncc2c1nc(N)n1nc(-c3ccco3)nc21 (stereo not shown) [Compound B26, 2-(5-amino-2-(furan-2-yl)-7H-pyrazolo[4,3-e][1,2,4]triazolo[1,5-c]pyrimidin-7-yl)-2-phenyl-1-(7-oxa-2-azaspiro[3.5]nonan-2-yl)propan-1-one]	15.4
CN1CCN(C(=O)C(C)(c2ccccc2)n2ncc3c2nc(N)n2nc(-c4ccco4)nc32)CC1 (stereo not shown) [Compound B27, 2-(5-amino-2-(furan-2-yl)-7H-pyrazolo[4,3-e][1,2,4]triazolo[1,5-c]pyrimidin-7-yl)-1-(4-methylpiperazin-1-yl)-2-phenylpropan-1-one]	30.3
CO[C@H]1CCCN(C(=O)C(C)(c2ccccc2)n2ncc3c2nc(N)n2nc(-c4ccco4)nc32)C1 (stereo partly drawn) [Compound B28, 2-(5-amino-2-(furan-2-yl)-7H-pyrazolo[4,3-e][1,2,4]triazolo[1,5-c]pyrimidin-7-yl)-1-((S)-3-methoxypiperidin-1-yl)-2-phenylpropan-1-one]	33.5
CO[C@H]1CCN(C(=O)C(C)(c2ccccc2)n2ncc3c2nc(N)n2nc(-c4ccco4)nc32)C1 (stereo partly drawn) [Compound B29, 2-(5-amino-2-(furan-2-yl)-7H-pyrazolo[4,3-e][1,2,4]triazolo[1,5-c]pyrimidin-7-yl)-1-((S)-3-methoxypyrrolidin-1-yl)-2-phenylpropan-1-one]	76.5
CO[C@@H]1CCN(C(=O)C(C)(c2ccccc2)n2ncc3c2nc(N)n2nc(-c4ccco4)nc32)C1 (stereo partly drawn) [Compound B30, 2-(5-amino-2-(furan-2-yl)-7H-pyrazolo[4,3-e][1,2,4]triazolo[1,5-c]pyrimidin-7-yl)-1-((R)-3-methoxypyrrolidin-1-yl)-2-phenylpropan-1-one]	97.3
CO[C@@H]1CCCN(C(=O)C(C)(c2ccccc2)n2ncc3c2nc(N)n2nc(-c4ccco4)nc32)C1 (stereo partly drawn) [Compound B31, 2-(5-amino-2-(furan-2-yl)-7H-pyrazolo[4,3-e][1,2,4]triazolo[1,5-c]pyrimidin-7-yl)-1-((R)-3-methoxypiperidin-1-yl)-2-phenylpropan-1-one]	46
CC(C(=O)N1CCC[C@@H](O)C1)(c1ccccc1)n1ncc2c1nc(N)n1nc(-c3ccco3)nc21 (stereo partly drawn) [Compound B32, 2-(5-amino-2-(furan-2-yl)-7H-pyrazolo[4,3-e][1,2,4]triazolo[1,5-c]pyrimidin-7-yl)-1-((R)-3-hydroxypiperidin-1-yl)-2-phenylpropan-1-one]	111
COC(=O)C1CC2(CCN(C(=O)C(C)(c3ccccc3)n3ncc4c3nc(N)n3nc(-c5ccco5)nc43)CC2)C1 (stereo not shown) [Compound B33, methyl 7-(2-(5-amino-2-(furan-2-yl)-7H-pyrazolo[4,3-e][1,2,4]triazolo[1,5-c]pyrimidin-7-yl)-2-phenylpropanoyl)-7-azaspiro[3.5]nonane-2-carboxylate]	16.5
CC(C(=O)N1CCC2(CC1)COC2)(c1ccccc1)n1ncc2c1nc(N)n1nc(-c3ccco3)nc21 (stereo not shown) [Compound B34]	14
COCCOc1ccc(N2CCN(C(=O)C(C)(C)n3cc4c(nc(N)n5nc(-c6ccco6)nc45)n3)CC2)cc1 [Compound C3, 2-(5-amino-2-(furan-2-yl)-8H-pyrazolo[4,3-e][1,2,4]triazolo[1,5-c]pyrimidin-8-yl)-1-(4-(4-(2-methoxyethoxy)phenyl)piperazin-1-yl)-2-methylpropan-1-one]	1870
COCCOCCOc1ccc(N2CCN(C(=O)C(C)(C)n3cc4c(nc(N)n5nc(-c6ccco6)nc45)n3)CC2)cc1 [Compound C6, 2-(5-amino-2-(furan-2-yl)-8H-pyrazolo[4,3-e][1,2,4]triazolo[1,5-c]pyrimidin-8-yl)-1-(4-(4-(2-(2-methoxyethoxy)ethoxy)phenyl)piperazin-1-yl)-2-methylpropan-1-one]	3180
CCCC(C(=O)N1CCN(c2ccc(OCCOCCOC)cc2)CC1)n1cc2c(nc(N)n3nc(-c4ccco4)nc23)n1 (stereo not shown) [Compound C7, 2-(5-amino-2-(furan-2-yl)-8H-pyrazolo[4,3-e][1,2,4]triazolo[1,5-c]pyrimidin-8-yl)-1-(4-(4-(2-(2-methoxyethoxy)ethoxy)phenyl)piperazin-1-yl)pentan-1-one]	186
CCCCC(C(=O)N1CCN(c2ccc(OCCOCCOC)cc2)CC1)n1cc2c(nc(N)n3nc(-c4ccco4)nc23)n1 (stereo not shown) [Compound C11, 2-(5-amino-2-(furan-2-yl)-8H-pyrazolo[4,3-e][1,2,4]triazolo[1,5-c]pyrimidin-8-yl)-1-(4-(4-(2-(2-methoxyethoxy)ethoxy)phenyl)piperazin-1-yl)hexan-1-one]	118
COCCOCCOc1ccc(N2CCN(C(=O)C(C(C)C)n3cc4c(nc(N)n5nc(-c6ccco6)nc45)n3)CC2)cc1 (stereo not shown) [Compound C12, 2-(5-amino-2-(furan-2-yl)-8H-pyrazolo[4,3-e][1,2,4]triazolo[1,5-c]pyrimidin-8-yl)-1-(4-(4-(2-(2-methoxyethoxy)ethoxy)phenyl)piperazin-1-yl)-3-methylbutan-1-one]	337

Reference: patent US20210300936A1, “PYRAZOLOTRIAZOLOPYRIMIDINE DERIVATIVES AS A2A RECEPTOR ANTAGONIST” (BEIGENE, LTD., priority 2018, published 2021)
